Laboratory results reported in patent publication US20090192204A1, “N-(2-THIAZOLYL)-AMIDE DERIVATIVES AS GSK-3 INHIBITORS” (NOSCIRA, S.A., priority 2006, published 2009).

Assays:
[1] = tested on: phosphorylated human Tau [pS396]; assay: Inhibition of tau phosphorylation in SHSY5Y cells (Tau [pS396] sandwich ELISA); format: cell-based; parameters: key: “NEG” means no tau phosphorylation inhibition was detected at the referred concentration of compound (I); “POS” means that at the referred concentration tau phosphorylation inhibition was detected; conditions: 18 h
Experimental: Human neuroblastoma SHSY5Y cells were seeded in the presence of Minimum Essential Medium/Nutrient Mixture F-12. One day later, cells are treated with samples for 18 h at 37° C. After treatment, cultures are washed with phosphate-buffered saline and lysed for 30 min at 4° C. in extraction buffer (10 mM Tris-HCl, pH 7.4, 100 mM NaCl, 1 mM EDTA, 2 mM Na3VO4, 1% Triton X-100, 10% glycerol, 0.1% SDS, 0.5% Sodium deoxycholate, 1 mM PMSF and a protease inhibitor cocktail (Roche, Cat 1 697 498)).
The quantitative determination of phosphorylated human Tau is made taking aliquots of the cell lysate and using a phosphorylation-specific antibody against Tau [pS396] in a sandwich ELISA (Biosource, Cat KHB7031). Tau phosphorylation is estimated by measuring the absorbance at 450 nm in a microtiter plate reader (Cultek, Anthos 2010).
The effect of the synthesized compounds according to examples 1-7 and that of another 6 compounds of formula (I) is determined at different final concentrations, namely 50, 100 and 200 μM. Not all the compounds of formula (I) were tested at all the concentrations. The results are indicated in Table 1 (see below) as “NEG” and “POS”, respectively meaning “negative” and “positive”; “NEG” means no tau phosphorylation inhibition was detected at the referred concentration of compound (I); “POS” means that at the referred concentration tau phosphorylation inhibition was detected.

SH-SY5Y cells = assay: Cell survival by LDH release in SH-SY5Y cells; format: cell-based
Experimental: In addition to tau phosphorylation assays, quantification of cell death due to potential toxicity of compounds 1, 4, 5, 7, 8, 9, 10 and 11 described above is made by measuring LDH release (Roche, Cat 1 644 793). For the quantitative determination of cell survival, aliquots of the cell lysate are incubated with an equal volume of reaction mixture at room temperature for 20-30 min. The measure of absorbance is made in a microtiter plate reader with 490-492 nm filter (Cultek, Anthos 2010).
For compounds 4 and 5, the cell survival was measured at 24 hours treatment (see Table 2), and for compounds 1, 7, 8, 9, 10 and 11 was measured at 18 hours treatment (see Table 3), in SH-SY5Y cells. It is generally considered that a compound is considered toxic if less than 80% of the cells survive after treatment with a compound.

[2] = target: T1, Recombinant human glycogen synthase kinase 3β (Homo sapiens, UniProt P49841); assay: GSK-3β inhibition (radiometric kinase assay, GS-2 peptide, 33P-ATP); format: biochemical; conditions: 0.5 h, remaining GSK-3 activity; for remaining activity at 25 µM: compound 25 μM; for remaining activity at 50 µM: compound 50 μM
T1 construct: purchased Upstate 14-306
Experimental: This assay is based on the protocol detailed by Upstate Cat. 14-306, making some slight modifications.
Recombinant human glycogen synthase kinase 3β is assayed in MOPS 11 mM pH7.4, EDTA 0.2 mM, EGTA 1.25 mM, MgCl2 26.25 mM and sodium orthovanadate 0.25 mM in the presence of 62.5 μM of Phospho-Glycogen Synthase Peptide-2 (GS-2) (TOCRIS, Cat. 1352), 0.5 μCi γ-^33P-ATP and unlabelled ATP (Sigma, A-9187) at a final concentration of 12.5 μM. After incubation for 30 minutes at 30° C., aliquots are spotted onto P81 phosphocellulose papers. Filters are washed four times for at least 10 minutes each with 1% phosphoric acid and counted with scintillation cocktail in a scintillation counter (PerkinElmer, Microbeta 1450). The activity of GSK-3 is tested at concentrations of 25 and 50 μM, in the presence of the compounds synthesized according to examples 1 to 7 and in the presence of another 6 compounds of formula (I).The results obtained are indicated in Table I (see below), in the form of percentage of GSK-3 activity.

T1 sequence (P49841 whole entry): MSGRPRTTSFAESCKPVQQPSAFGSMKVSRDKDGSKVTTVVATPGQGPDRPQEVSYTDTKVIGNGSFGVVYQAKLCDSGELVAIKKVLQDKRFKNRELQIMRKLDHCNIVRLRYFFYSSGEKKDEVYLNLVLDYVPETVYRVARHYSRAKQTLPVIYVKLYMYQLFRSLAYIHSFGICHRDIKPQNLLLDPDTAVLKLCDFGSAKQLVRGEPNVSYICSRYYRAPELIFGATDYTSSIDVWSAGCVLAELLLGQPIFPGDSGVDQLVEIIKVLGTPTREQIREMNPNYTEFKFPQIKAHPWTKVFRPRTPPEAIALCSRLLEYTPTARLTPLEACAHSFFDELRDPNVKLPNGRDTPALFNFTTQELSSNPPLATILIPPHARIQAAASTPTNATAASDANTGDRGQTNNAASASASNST

SMILES	Tau phosphorylation inhibition in cells ([1]; 50 μM)	Tau phosphorylation inhibition in cells ([1]; 100 μM)	Tau phosphorylation inhibition in cells ([1]; 200 μM)	% of cell viability (SH-SY5Y cells; 50 μM, 18 hours treatment) [%]	% of cell viability (SH-SY5Y cells; 100 μM, 18 hours treatment) [%]	remaining activity at 25 µM [2] [%]	remaining activity at 50 µM [2] [%]	% of cell viability (SH-SY5Y cells; 10 μM, 24 hours treatment) [%]	% of cell viability (SH-SY5Y cells; 25 μM, 24 hours treatment) [%]
O=C(CCCc1c[nH]c2ccccc12)Nc1ncc([N+](=O)[O-])s1 [Compound 1]	NEG	NEG	NEG	103.2 ± 17	101.0 ± 17	37.4	18.9	–	–
O=C(CCCc1c[nH]c2ccccc12)Nc1nccs1 [Compound 2]	–	–	–	–	–	59.6	39	–	–
O=C(Nc1ncc([N+](=O)[O-])s1)c1c[nH]c2ccccc12 [Compound 3]	–	–	–	–	–	73.8	53.4	–	–
O=C(Cc1c[nH]c2ccccc12)Nc1ncc([N+](=O)[O-])s1 [Compound 4, 2-(Indol-3-yl)-N-(5-nitro-thiazol-2-yl)-acetamide]	NEG	POS	POS	–	–	6.29	8.51	91.7 ± 1.9	90 ± 3.7
O=C(CCc1c[nH]c2ccccc12)Nc1ncc([N+](=O)[O-])s1 [Compound 5]	POS	POS	POS	–	–	19.1	12.4	87.8 ± 3.8	86.1 ± 18.4
O=C(Cc1c[nH]c2ccccc12)Nc1ncc(Cl)s1 [Compound 6]	–	–	–	–	–	29.4	14.6	–	–
COc1ccc2[nH]cc(CC(=O)Nc3ncc([N+](=O)[O-])s3)c2c1 [Compound 7, 2-(5-Methoxy-indol-3-yl)-N-(5-nitro-thiazol-2-yl)-acetamide]	NEG	POS	–	99.8 ± 8.6	92.9 ± 11.1	43.9	32.2	–	–
Cn1cc(CC(=O)Nc2ncc([N+](=O)[O-])s2)c2ccccc21 [Compound 8, 2-(1-Methyl-indol-3-yl)-N-(5-nitro-thiazol-2-yl)-acetamide]	POS	POS	–	103 ± 7.7	85.5 ± 6.5	17.8	9.27	–	–
Cc1[nH]c2ccccc2c1CC(=O)Nc1ncc([N+](=O)[O-])s1 [Compound 9, 2-(2-Methyl-indol-3-yl)-N-(5-nitro-thiazol-2-yl)-acetamide]	POS	POS	–	91.6 ± 5.9	90.8 ± 5.5	7.96	2.61	–	–
COc1ccc2[nH]c(C(=O)Nc3ncc([N+](=O)[O-])s3)cc2c1 [Compound 10, 5-Methoxy-indole-2-carboxylic Acid (5-nitro-thiazol-2-yl)-amide]	POS	POS	–	84.7 ± 2.7	90.6 ± 7.2	18.9	11	–	–
O=C(Nc1ncc([N+](=O)[O-])s1)c1n[nH]c2ccccc12 [Compound 11, 1H-Indazole-3-carboxylic Acid (5-nitro-thiazol-2-yl)-amide]	NEG	NEG	–	95.3 ± 3.3	93.9 ± 5.6	34.8	18.2	–	–
Cc1cnc(NC(=O)Cc2c[nH]c3ccccc23)s1 [Compound 12]	–	–	–	–	–	49.1	37.1	–	–
O=C(Cc1c[nH]c2ccccc12)Nc1nccs1 [Compound 13]	–	–	–	–	–	70.9	42.7	–	–
